Source: patent US7087631B2, “Aryltetrazole compounds, and compositions thereof” (Inotek Pharmaceuticals Corporation, priority 2002, dated 2006)

Legend:
[1] = tested on: thioacetamide model of hepatic failure; experiment: Toxic liver injury model (thioacetamide model of hepatic failure), serum AST; type: in vivo; conditions: mice; for serum AST levels (result in words): summary of the table; for Percent Inhibition of Serum AST Levels: thioacetamide 400 mg/kg i.p., mean ±SEM (n=7-10)
Experimental: Illustrative 5-Aryltetrazole Compounds exert hepatoprotective effects in a thioacetamide model of hepatic failure. […] […] Results are expressed as percent inhibtion, mean ±SEM (n=7-10). Studies were conducted as described in Biochim. Biophys. Acta. 1536(1):21-30 (2001).

[2] = target: xanthine oxidase (Homo sapiens, UniProt P47989); experiment: Xanthine oxidase inhibitory activity, 96 well plate, kinetic reading at 295 nm; type: biochemical
[3] = tested on: gut ischemia reperfusion; experiment: Gut ischemia reperfusion-induced hyperpermeability and mortality; type: in vivo; conditions: mice; for Survival % (6 h): 6 hours of reperfusion, control 60; for Survival % (2 days): 2 days of reperfusion, control 0; for Gut Permeability: intraperitoneal, control 100%
Experimental: Illustrative 5-Aryltetrazole Compounds exert protective effects in various models of organ ischemia and reperfusion. For example, intraperitoneal administration of illustrative 5-Aryltetrazole Compounds retards the progression of gut ischemia reperfusion-induced hyperpermeability and mortality in mice. Results are expressed as % decrease in gut hyperpermeability and as mortality as observed after 6 hours and 2 days of reperfusion. Studies were conducted as described in Shock, 14(2): 134-141 (2000). There was a notable dose-dependent effect on gut hyperpermeability and there was an improvement in survival rate, as tested at the highest dose of both levels.

[4] = tested on: collagen-induced arthritis; experiment: Collagen-induced arthritis; type: in vivo; conditions: mice; for % Incidence / Mean Severity: collagen-induced arthritis
Experimental: An illustrative 5-Aryltetrazole Compound exerts protective effects in a model of collagen-induced arthritis in mice. Results are expressed as incidence and severity over time. Studies were conducted as described in Inflamm. Res. 50(11):561-569 (2001). The results illustrate that the administration of Compound JO, an illustrative 5-Aryltetrazole Compound, reduced incidence of collagen-induced arthritis in mice.

[5] = tested on: hemorrhagic shock; conditions: canine model of hemorrhagic shock; cited from earlier work
[6] = tested on: severe hemorrhagic shock; conditions: canine, cited from earlier work; for benefit (survival): given alone after shock had been produced

Sequence of xanthine oxidase (P47989 whole entry, species assumed, the tested form may be a part): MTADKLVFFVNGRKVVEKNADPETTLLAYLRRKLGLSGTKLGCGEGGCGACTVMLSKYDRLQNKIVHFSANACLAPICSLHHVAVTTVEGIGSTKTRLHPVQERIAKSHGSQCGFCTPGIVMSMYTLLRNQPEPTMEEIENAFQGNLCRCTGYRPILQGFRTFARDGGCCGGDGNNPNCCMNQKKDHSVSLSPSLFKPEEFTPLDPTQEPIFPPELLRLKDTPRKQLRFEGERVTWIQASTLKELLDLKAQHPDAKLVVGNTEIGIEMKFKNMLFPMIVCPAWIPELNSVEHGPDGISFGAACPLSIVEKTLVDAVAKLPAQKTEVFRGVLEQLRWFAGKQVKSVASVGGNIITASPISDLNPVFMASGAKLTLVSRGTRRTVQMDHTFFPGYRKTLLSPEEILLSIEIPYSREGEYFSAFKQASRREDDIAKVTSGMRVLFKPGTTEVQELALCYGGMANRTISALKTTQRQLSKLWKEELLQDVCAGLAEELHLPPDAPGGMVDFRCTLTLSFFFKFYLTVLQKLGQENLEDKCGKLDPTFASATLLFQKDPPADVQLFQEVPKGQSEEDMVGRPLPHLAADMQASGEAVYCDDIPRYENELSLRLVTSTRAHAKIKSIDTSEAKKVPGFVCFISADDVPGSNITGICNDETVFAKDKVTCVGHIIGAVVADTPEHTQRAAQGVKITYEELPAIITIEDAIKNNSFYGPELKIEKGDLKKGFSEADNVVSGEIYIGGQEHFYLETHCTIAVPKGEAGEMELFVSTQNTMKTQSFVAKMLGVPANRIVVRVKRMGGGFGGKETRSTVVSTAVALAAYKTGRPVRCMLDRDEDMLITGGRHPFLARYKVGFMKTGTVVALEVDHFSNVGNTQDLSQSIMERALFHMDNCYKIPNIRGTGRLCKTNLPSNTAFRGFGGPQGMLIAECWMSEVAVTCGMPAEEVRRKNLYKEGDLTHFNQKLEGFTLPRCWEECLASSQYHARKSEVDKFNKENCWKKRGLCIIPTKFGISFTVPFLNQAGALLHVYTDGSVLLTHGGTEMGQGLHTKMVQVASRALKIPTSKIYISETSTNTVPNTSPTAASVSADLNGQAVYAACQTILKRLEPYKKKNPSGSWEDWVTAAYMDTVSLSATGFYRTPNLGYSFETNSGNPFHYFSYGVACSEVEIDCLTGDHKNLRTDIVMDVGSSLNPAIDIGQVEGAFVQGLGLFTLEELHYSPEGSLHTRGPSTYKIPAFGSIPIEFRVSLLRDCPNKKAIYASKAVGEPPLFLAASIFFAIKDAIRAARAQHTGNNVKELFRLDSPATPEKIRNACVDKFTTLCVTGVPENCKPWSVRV

| Compound | serum AST levels (result in words) [1] | Percent Inhibition of Serum AST Levels ([1]; single oral dose 3 mg/kg) [%] | Percent Inhibition of Serum AST Levels ([1]; single oral dose 10 mg/kg) [%] | PERCENT XANTHINE OXIDASE INHIBITION ([2]; compound concentration 0.03 μM) [%] | PERCENT XANTHINE OXIDASE INHIBITION ([2]; compound concentration 0.1 μM) [%] | PERCENT XANTHINE OXIDASE INHIBITION ([2]; compound concentration 1 μM) [%] | further results |
| --- | --- | --- | --- | --- | --- | --- | --- |
| O=C(Nc1ccccc1)c1ccc(-c2nn[nH]n2)cc1 [Compound IC] | inhibit serum AST levels | 3 ± 8 | 20 ± 5 | 60 | 81 | 100 | – |
| CC(C)Cc1ccc(NC(=O)c2ccc(-c3nnn[nH]3)cc2)cc1 [Compound IG] | inhibit serum AST levels | 25 ± 4 | 46 ± 8 | 33 | 59 | 93 | Survival % (6 h) ([3]; 30 mg/kg): 87%; Survival % (2 days) ([3]; 30 mg/kg): 20%; Gut Permeability ([3]; 3 mg/kg): 73%; Gut Permeability ([3]; 10 mg/kg): 69%; Gut Permeability ([3]; 30 mg/kg): 47% |
| CC(C)c1ccc(NC(=O)c2ccc(-c3nnn[nH]3)cc2)cc1 [Compound IP] | inhibit serum AST levels | 23 ± 8 | 41 ± 8 | 28 | 52 | 92 | – |
| O=C(O)c1ccc(NC(=O)c2ccc(-c3nnn[nH]3)cc2)cc1 [Compound IS] | inhibit serum AST levels | – | 33 ± 5 | 44 | 68 | 97 | – |
| Cc1ccc(NC(=O)c2ccc(-c3nnn[nH]3)cc2)cc1 [Compound JN] | – | 11 ± 7 | 31 ± 7 | 20 | 41 | 88 | – |
| CC(C)(C)c1ccc(NC(=O)c2ccc(-c3nnn[nH]3)cc2)cc1 [Compound JO] | – | 24 ± 9 | 36 ± 12 | 18 | 36 | 83 | incidence of collagen-induced arthritis (result in words) ([4]; after 33 days, versus untreated mice): significant decrease; % Incidence ([4]; day 25): 20%; Mean Severity ([4]; day 25): 0; % Incidence ([4]; day 27): 35%; Mean Severity ([4]; day 27): 0; % Incidence ([4]; day 29): 45%; Mean Severity ([4]; day 29): 3; % Incidence ([4]; day 31): 75%; Mean Severity ([4]; day 31): 8; % Incidence ([4]; day 33): 85%; Mean Severity ([4]; day 33): 8; collagen-induced arthritis (result in words) ([4]; summary): inhibits collagen-induced arthritis; Survival % (6 h) ([3]; 30 mg/kg): 87%; Survival % (2 days) ([3]; 30 mg/kg): 13%; Gut Permeability ([3]; 30 mg/kg): 39% |
| O=C(Nc1ccc(Cl)cc1)c1ccc(-c2nnn[nH]2)cc1 [IX] | inhibit serum AST levels | – | 31 ± 1 | 46 | 74 | 98 | – |
| CCc1ccc(NC(=O)c2ccc(-c3nnn[nH]3)cc2)cc1 [JM] | – | 12 ± 7 | 31 ± 7 | 16 | 38 | 89 | – |
| Oc1ncnc2[nH]ncc12 [allopurinol] | – | – | – | – | – | – | survival (result in words) [5]: significantly improved survival; benefit (survival) [6]: no benefit; increase in survival ([6]; pre-treatment): 6 fold |
| O=c1[nH]cnc2nc[nH]c12 [hypoxanthine] | – | – | – | – | – | – | benefit (survival) [6]: no benefit |
